Results from the NIST ThermoML archive (doi:10.1016/j.jct.2018.04.001).
± gives the expanded uncertainty stated by the source.

Settings: Liquid, Vibrating wire viscometry

FC(F)(F)/C=C/Cl [(E)-1-chloro-3,3,3-trifluoroprop-1-ene]
Settings | viscosity [mPa·s]
243.14 K, 5000 kPa | 0.5536 ± 0.012
243.15 K, 200 kPa | 0.5325 ± 0.012
243.15 K, 1000 kPa | 0.542 ± 0.012
243.15 K, 10000 kPa | 0.5859 ± 0.013
243.15 K, 20000 kPa | 0.6281 ± 0.014
243.15 K, 30000 kPa | 0.6899 ± 0.015
243.15 K, 40000 kPa | 0.7324 ± 0.016
253.14 K, 20000 kPa | 0.5583 ± 0.013
253.15 K, 200 kPa | 0.4733 ± 0.011
253.15 K, 1000 kPa | 0.4782 ± 0.011
253.15 K, 5000 kPa | 0.4887 ± 0.011
253.15 K, 10000 kPa | 0.5179 ± 0.012
253.15 K, 30000 kPa | 0.6008 ± 0.013
253.15 K, 40000 kPa | 0.6521 ± 0.014
263.14 K, 200 kPa | 0.4168 ± 0.0097
263.15 K, 1000 kPa | 0.4194 ± 0.0098
263.15 K, 5000 kPa | 0.433 ± 0.01
263.15 K, 10000 kPa | 0.455 ± 0.01
263.15 K, 20000 kPa | 0.4998 ± 0.011
263.15 K, 30000 kPa | 0.539 ± 0.012
263.16 K, 40000 kPa | 0.5767 ± 0.013
273.14 K, 30000 kPa | 0.4792 ± 0.011
273.15 K, 200 kPa | 0.3733 ± 0.0089
273.15 K, 1000 kPa | 0.3741 ± 0.0089
273.15 K, 5000 kPa | 0.3892 ± 0.0092
273.15 K, 10000 kPa | 0.4091 ± 0.0096
273.15 K, 20000 kPa | 0.4448 ± 0.01
273.15 K, 40000 kPa | 0.5197 ± 0.012
283.14 K, 200 kPa | 0.3347 ± 0.0082
283.14 K, 10000 kPa | 0.3688 ± 0.0088
283.15 K, 1000 kPa | 0.3363 ± 0.0082
283.15 K, 5000 kPa | 0.351 ± 0.0085
283.15 K, 20000 kPa | 0.4033 ± 0.0095
283.15 K, 30000 kPa | 0.4368 ± 0.01
283.15 K, 40000 kPa | 0.4708 ± 0.011
293.14 K, 20000 kPa | 0.3656 ± 0.0088
293.14 K, 40000 kPa | 0.428 ± 0.0099
293.15 K, 200 kPa | 0.3004 ± 0.0076
293.15 K, 1000 kPa | 0.3033 ± 0.0076
293.15 K, 5000 kPa | 0.316 ± 0.0079
293.15 K, 10000 kPa | 0.3332 ± 0.0082
293.15 K, 30000 kPa | 0.3971 ± 0.0094
303.15 K, 200 kPa | 0.2719 ± 0.0071
303.15 K, 1000 kPa | 0.2743 ± 0.0071
303.15 K, 5000 kPa | 0.2874 ± 0.0073
303.15 K, 10000 kPa | 0.3033 ± 0.0076
303.15 K, 20000 kPa | 0.3337 ± 0.0082
303.15 K, 30000 kPa | 0.3635 ± 0.0087
303.16 K, 40000 kPa | 0.393 ± 0.0093
313.15 K, 300 kPa | 0.2464 ± 0.0066
313.15 K, 10000 kPa | 0.2767 ± 0.0072
313.15 K, 20000 kPa | 0.3058 ± 0.0077
313.15 K, 30000 kPa | 0.3337 ± 0.0082
313.15 K, 40000 kPa | 0.3611 ± 0.0087
313.16 K, 1000 kPa | 0.2489 ± 0.0067
313.16 K, 5000 kPa | 0.2611 ± 0.0069
323.14 K, 40000 kPa | 0.3345 ± 0.0082
323.15 K, 400 kPa | 0.2243 ± 0.0062
323.15 K, 1000 kPa | 0.2267 ± 0.0063
323.15 K, 5000 kPa | 0.2393 ± 0.0065
323.15 K, 10000 kPa | 0.254 ± 0.0068
323.15 K, 20000 kPa | 0.2819 ± 0.0072
323.15 K, 30000 kPa | 0.3084 ± 0.0077
333.15 K, 500 kPa | 0.2047 ± 0.0059
333.15 K, 1000 kPa | 0.2069 ± 0.006
333.15 K, 5000 kPa | 0.2192 ± 0.0062
333.15 K, 10000 kPa | 0.2344 ± 0.0064
333.15 K, 20000 kPa | 0.262 ± 0.0069
333.15 K, 30000 kPa | 0.2888 ± 0.0074
333.15 K, 40000 kPa | 0.3147 ± 0.0078
343.14 K, 30000 kPa | 0.2702 ± 0.007
343.14 K, 40000 kPa | 0.2946 ± 0.0075
343.15 K, 600 kPa | 0.1887 ± 0.0057
343.15 K, 1000 kPa | 0.1903 ± 0.0057
343.15 K, 5000 kPa | 0.2029 ± 0.0059
343.15 K, 10000 kPa | 0.2179 ± 0.0061
343.15 K, 20000 kPa | 0.245 ± 0.0066
353.14 K, 10000 kPa | 0.1999 ± 0.0058
353.14 K, 30000 kPa | 0.2503 ± 0.0067
353.15 K, 5000 kPa | 0.1846 ± 0.0056
353.15 K, 20000 kPa | 0.2277 ± 0.0063
353.15 K, 40000 kPa | 0.2733 ± 0.0071
363.15 K, 5010 kPa | 0.1701 ± 0.0054
363.15 K, 10000 kPa | 0.1845 ± 0.0056
363.15 K, 20000 kPa | 0.2107 ± 0.006
363.15 K, 40000 kPa | 0.257 ± 0.0068
363.16 K, 30000 kPa | 0.2345 ± 0.0064
373.14 K, 40000 kPa | 0.2449 ± 0.0066
373.15 K, 5000 kPa | 0.1581 ± 0.0052
373.15 K, 10000 kPa | 0.1734 ± 0.0054
373.15 K, 20000 kPa | 0.1996 ± 0.0058
373.15 K, 30000 kPa | 0.2229 ± 0.0062
